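Interpolation was linear, between the two tested concentrations surrounding the appropriate level; five concentrations were tested over 48 hours in 96-well plates. GI50: concentration for 50% inhibition of growth.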 Calls of active or inactive are those of the source. Cut-off read from the data, not from the text of the source: active = GI50 up to about 1.1 µM and inactive = higher.
Legend:
Assay in all cases: NCI anticancer screen, dose series, 48 h
CCRF-CEM = system: CCRF-CEM
COLO 205 = system: COLO 205
HCT-15 = system: HCT-15
HOP-92 = system: HOP-92
K562 = system: K562
LXFL 529 = system: LXFL 529
MOLT-4 = system: MOLT-4
Malme-3M = system: Malme-3M
NCI-H460 = system: NCI-H460
SK-MEL-28 = system: SK-MEL-28
SNB-78 = system: SNB-78
SW-620 = system: SW-620
DU-145 = system: DU-145
MDA-MB-231 = system: MDA-MB-231
MDA-MB-435 = system: MDA-MB-435
MDA-N = system: MDA-N
PC-3 = system: PC-3
DMS-273 = system: DMS-273
KM-20L2 = system: KM-20L2

CO[C@]12CCC(=O)N1C=Cc1c2[nH]c2ccccc12
GI50 (CCRF-CEM): > 100 µM (inactive)
GI50 (COLO 205): > 100 µM (inactive)
GI50 (HCT-15): > 100 µM
GI50 (HOP-92): > 100 µM (inactive)
GI50 (K562): > 100 µM (inactive)
GI50 (LXFL 529): > 100 µM (inactive)
GI50 (MOLT-4): > 100 µM (inactive)
GI50 (Malme-3M): > 100 µM (inactive)
GI50 (NCI-H460): > 100 µM (inactive)
GI50 (SK-MEL-28): > 100 µM (inactive)
GI50 (SNB-78): > 100 µM (inactive)
GI50 (SW-620): > 100 µM (inactive)

C[C@H](CCC(=O)NCCS(=O)(=O)O)[C@H]1CC[C@H]2[C@@H]3[C@H](O)C[C@@H]4C[C@H](O)CC[C@]4(C)[C@H]3CC[C@]12C
GI50 (CCRF-CEM): > 100 µM (inactive)
GI50 (COLO 205): > 100 µM (inactive)
GI50 (DU-145): > 100 µM (inactive)
GI50 (HCT-15): > 100 µM
GI50 (HOP-92): > 100 µM (inactive)
GI50 (K562): > 100 µM (inactive)
GI50 (MDA-MB-231): > 100 µM (inactive)
GI50 (MDA-MB-435): > 100 µM (inactive)
GI50 (MDA-N): > 100 µM (inactive)
GI50 (MOLT-4): > 100 µM (inactive)
GI50 (Malme-3M): > 100 µM (inactive)
GI50 (NCI-H460): > 100 µM (inactive)
GI50 (PC-3): > 100 µM (inactive)
GI50 (SK-MEL-28): > 100 µM (inactive)
GI50 (SW-620): > 100 µM (inactive)

CCCCCCCCCCCCCCCCOP(=O)(O)Oc1ccc(/C=C\c2ccc(OP(=O)(O)OCCCCCCCCCCCCCCCC)cc2)cc1
GI50 (CCRF-CEM): 29 µM (inactive)
GI50 (COLO 205): 17.5 µM (inactive)
GI50 (DMS-273): 25.1 µM (inactive)
GI50 (HCT-15): > 100 µM
GI50 (HOP-92): 5.02 µM (inactive)
GI50 (K562): 36.1 µM (inactive)
GI50 (KM-20L2): 67.3 µM (inactive)
GI50 (LXFL 529): 28.3 µM (inactive)
GI50 (MOLT-4): 59 µM (inactive)
GI50 (Malme-3M): > 100 µM (inactive)
GI50 (NCI-H460): 56.4 µM (inactive)
GI50 (SK-MEL-28): > 100 µM (inactive)
GI50 (SNB-78): 20.1 µM (inactive)
GI50 (SW-620): > 100 µM (inactive)

COc1cc(C2c3cc4c(cc3[C@@H](NCCN3CCCCC3)C3COC(=O)[C@H]23)OCO4)cc(OC)c1O (some centres undefined)
GI50 (CCRF-CEM): 0.055 µM (active)
GI50 (COLO 205): 0.782 µM (active)
GI50 (DMS-273): 0.123 µM (active)
GI50 (HCT-15): 0.337 µM
GI50 (HOP-92): 0.265 µM (active)
GI50 (K562): 0.822 µM (active)
GI50 (KM-20L2): 1.53 µM (inactive)
GI50 (LXFL 529): 2 µM (inactive)
GI50 (MOLT-4): < 0.01 µM (active)
GI50 (Malme-3M): 0.451 µM (active)
GI50 (SK-MEL-28): 2.42 µM (inactive)
GI50 (SNB-78): 2.7 µM (inactive)
GI50 (SW-620): 0.621 µM (active)

CCCCCCCCCCCC/C=C\CC[C@@H](O)[C@H](O)CC[C@H](O)[C@@H]1CC[C@@H](CCCCCCCC2=C[C@H](C)OC2=O)O1 [GIGANTRIONENIN]
GI50 (CCRF-CEM): 1.44 µM (inactive)
GI50 (COLO 205): 2.98 µM (inactive)
GI50 (DU-145): 3.66 µM (inactive)
GI50 (HCT-15): 3.85 µM
GI50 (HOP-92): 2.47 µM (inactive)
GI50 (K562): 1.15 µM (inactive)
GI50 (MDA-MB-231): 7.18 µM (inactive)
GI50 (MDA-MB-435): 0.883 µM (active)
GI50 (MDA-N): 3.91 µM (inactive)
GI50 (MOLT-4): 2.17 µM (inactive)
GI50 (Malme-3M): 13.7 µM (inactive)
GI50 (NCI-H460): 2.91 µM (inactive)
GI50 (PC-3): 2.75 µM (inactive)
GI50 (SK-MEL-28): 2.94 µM (inactive)
GI50 (SW-620): 3.35 µM (inactive)

— ChEMBL document CHEMBL1201862, “PubChem BioAssay data set” (2004)
